Assay results as given in ChEMBL document CHEMBL5465560, “Selectivity Literature for EUbOPEN Chemogenomic Library” (2024).

How the values were obtained:
[1] = biological target: Calcium/calmodulin-dependent protein kinase type II subunit delta (Homo sapiens) (UniProt Q13557); assay: Selectivity interaction (KinomeScan (DiscoverX)) EUB0000666a CAMK2D; conditions: at 10 µM
[2] = biological target: Death-associated protein kinase 3 (Homo sapiens) (UniProt O43293); assay: Selectivity interaction (Kinase panel (DSF assay)) EUB0001559a DAPK3
Death-associated protein kinase 3 (Homo sapiens), sequence (O43293 whole entry, looked up): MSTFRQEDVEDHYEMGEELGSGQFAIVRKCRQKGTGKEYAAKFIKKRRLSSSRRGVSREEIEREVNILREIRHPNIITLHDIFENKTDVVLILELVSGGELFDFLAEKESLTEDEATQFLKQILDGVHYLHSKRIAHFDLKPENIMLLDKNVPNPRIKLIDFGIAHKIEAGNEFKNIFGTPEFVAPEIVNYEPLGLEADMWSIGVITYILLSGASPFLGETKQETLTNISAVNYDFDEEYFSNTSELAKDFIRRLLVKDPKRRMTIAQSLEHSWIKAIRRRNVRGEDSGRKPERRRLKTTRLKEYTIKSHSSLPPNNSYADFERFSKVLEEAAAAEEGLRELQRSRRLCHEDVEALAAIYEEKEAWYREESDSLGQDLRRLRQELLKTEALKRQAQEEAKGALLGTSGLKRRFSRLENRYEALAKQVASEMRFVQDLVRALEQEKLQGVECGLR

[3] = biological target: Mitogen-activated protein kinase kinase kinase kinase 1 (Homo sapiens) (UniProt Q92918); assay: Selectivity interaction (ActivX KiNativ screen (kinase selectivity in THP-1 cell lysates)) EUB0000639a MAP4K1; type: subcellular; conditions: lysate, at 0.01 µM
[4] = biological target: Leucine-rich repeat serine/threonine-protein kinase 2 (Homo sapiens, UniProt Q5S007); assay: Selectivity interaction (Kinase panel (Invitrogen)) EUB0000639a LRRK2; conditions: at 200 nM
Leucine-rich repeat serine/threonine-protein kinase 2, sequence (Q5S007 whole entry): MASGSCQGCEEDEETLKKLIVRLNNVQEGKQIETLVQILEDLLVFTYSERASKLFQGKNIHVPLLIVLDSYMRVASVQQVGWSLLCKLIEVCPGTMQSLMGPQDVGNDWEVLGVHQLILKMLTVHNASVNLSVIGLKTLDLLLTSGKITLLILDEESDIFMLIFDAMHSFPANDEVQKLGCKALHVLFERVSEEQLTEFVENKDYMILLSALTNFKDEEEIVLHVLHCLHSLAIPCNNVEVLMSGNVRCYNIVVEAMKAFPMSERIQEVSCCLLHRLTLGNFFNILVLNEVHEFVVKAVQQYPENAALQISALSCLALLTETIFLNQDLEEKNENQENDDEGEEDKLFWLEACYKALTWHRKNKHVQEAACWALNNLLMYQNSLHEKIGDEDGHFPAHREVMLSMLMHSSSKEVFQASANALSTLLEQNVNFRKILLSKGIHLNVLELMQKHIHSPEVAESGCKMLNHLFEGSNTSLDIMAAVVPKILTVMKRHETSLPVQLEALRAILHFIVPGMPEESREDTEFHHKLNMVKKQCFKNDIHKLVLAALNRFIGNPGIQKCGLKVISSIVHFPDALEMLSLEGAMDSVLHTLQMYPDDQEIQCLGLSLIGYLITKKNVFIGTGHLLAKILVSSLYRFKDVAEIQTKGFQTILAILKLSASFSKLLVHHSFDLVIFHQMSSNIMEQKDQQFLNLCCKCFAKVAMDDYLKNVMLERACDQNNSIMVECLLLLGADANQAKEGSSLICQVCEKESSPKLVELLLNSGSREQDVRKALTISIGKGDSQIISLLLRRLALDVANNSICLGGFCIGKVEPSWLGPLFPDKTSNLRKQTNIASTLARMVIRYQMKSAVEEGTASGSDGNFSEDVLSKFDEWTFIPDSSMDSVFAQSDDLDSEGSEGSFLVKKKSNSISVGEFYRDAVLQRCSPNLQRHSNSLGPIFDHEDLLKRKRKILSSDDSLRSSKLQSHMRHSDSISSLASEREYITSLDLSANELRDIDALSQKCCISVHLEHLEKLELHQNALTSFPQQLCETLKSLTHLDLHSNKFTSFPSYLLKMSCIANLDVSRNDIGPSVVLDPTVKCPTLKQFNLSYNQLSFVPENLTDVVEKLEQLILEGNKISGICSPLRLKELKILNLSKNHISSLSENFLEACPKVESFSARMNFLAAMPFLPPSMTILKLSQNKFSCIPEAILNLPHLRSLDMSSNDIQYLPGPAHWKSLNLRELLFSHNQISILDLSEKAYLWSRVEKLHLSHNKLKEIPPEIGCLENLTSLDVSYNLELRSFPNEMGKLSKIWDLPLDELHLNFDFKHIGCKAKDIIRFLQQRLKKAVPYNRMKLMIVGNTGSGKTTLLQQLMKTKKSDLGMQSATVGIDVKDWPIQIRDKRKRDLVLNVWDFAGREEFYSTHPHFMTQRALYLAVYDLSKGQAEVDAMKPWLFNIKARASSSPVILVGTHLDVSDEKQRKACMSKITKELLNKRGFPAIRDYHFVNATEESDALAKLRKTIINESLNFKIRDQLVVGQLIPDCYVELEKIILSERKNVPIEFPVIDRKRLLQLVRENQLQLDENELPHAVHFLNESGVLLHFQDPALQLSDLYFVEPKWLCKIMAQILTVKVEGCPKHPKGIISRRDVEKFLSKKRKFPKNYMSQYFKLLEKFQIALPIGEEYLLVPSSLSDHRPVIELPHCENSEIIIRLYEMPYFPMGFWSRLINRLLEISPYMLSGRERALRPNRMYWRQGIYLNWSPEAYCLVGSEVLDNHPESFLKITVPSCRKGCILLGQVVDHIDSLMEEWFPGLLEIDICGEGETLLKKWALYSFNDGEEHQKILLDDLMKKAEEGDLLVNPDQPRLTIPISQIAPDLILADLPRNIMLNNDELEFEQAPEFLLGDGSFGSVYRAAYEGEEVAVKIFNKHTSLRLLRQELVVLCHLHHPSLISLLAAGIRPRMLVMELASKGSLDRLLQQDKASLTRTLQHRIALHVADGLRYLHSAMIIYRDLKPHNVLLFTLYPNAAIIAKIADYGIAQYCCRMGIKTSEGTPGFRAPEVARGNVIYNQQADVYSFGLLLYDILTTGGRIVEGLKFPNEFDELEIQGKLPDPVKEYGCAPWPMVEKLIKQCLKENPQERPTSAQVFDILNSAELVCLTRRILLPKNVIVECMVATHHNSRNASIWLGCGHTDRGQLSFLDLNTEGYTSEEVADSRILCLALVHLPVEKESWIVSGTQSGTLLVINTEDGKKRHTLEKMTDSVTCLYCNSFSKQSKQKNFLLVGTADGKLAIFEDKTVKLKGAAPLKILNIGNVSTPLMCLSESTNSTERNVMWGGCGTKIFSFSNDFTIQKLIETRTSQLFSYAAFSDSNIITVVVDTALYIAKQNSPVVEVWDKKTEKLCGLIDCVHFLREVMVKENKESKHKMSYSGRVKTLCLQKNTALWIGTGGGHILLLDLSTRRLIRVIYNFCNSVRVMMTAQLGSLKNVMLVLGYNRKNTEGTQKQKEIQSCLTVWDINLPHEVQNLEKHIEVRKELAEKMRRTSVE

[5] = biological target: T1, Dual specificity mitogen-activated protein kinase kinase 4 (Homo sapiens) (UniProt P45985); assay: Selectivity interaction (ActivX KiNativ screen (kinase selectivity in THP-1 cell lysates)) EUB0000639a MAP2K4; type: subcellular; conditions: lysate, at 0.01 µM
T1 sequence (whole entry): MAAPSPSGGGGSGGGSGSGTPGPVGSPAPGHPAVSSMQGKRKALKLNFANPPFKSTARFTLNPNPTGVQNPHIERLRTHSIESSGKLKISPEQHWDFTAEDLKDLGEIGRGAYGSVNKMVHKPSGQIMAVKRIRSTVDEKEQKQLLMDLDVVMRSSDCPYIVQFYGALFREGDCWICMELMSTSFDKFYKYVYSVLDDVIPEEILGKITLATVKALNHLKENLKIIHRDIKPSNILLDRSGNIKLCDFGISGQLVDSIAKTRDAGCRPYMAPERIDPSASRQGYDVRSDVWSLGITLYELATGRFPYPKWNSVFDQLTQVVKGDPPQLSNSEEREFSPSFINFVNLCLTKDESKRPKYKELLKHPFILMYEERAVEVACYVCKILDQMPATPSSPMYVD

[6] = biological target: Protein kinase C alpha type (Homo sapiens, UniProt P17252); assay: Selectivity interaction (Kinase panel (Invitrogen)) EUB0000639a PRKCA; conditions: at 200 nM
[7] = biological target: T2, Ephrin type-B receptor 3 (Homo sapiens) (UniProt P54753); assay: Selectivity interaction (KinomeScan (DiscoverX)) EUB0000092b EPHB3; conditions: at 10 µM
T2 sequence (whole entry): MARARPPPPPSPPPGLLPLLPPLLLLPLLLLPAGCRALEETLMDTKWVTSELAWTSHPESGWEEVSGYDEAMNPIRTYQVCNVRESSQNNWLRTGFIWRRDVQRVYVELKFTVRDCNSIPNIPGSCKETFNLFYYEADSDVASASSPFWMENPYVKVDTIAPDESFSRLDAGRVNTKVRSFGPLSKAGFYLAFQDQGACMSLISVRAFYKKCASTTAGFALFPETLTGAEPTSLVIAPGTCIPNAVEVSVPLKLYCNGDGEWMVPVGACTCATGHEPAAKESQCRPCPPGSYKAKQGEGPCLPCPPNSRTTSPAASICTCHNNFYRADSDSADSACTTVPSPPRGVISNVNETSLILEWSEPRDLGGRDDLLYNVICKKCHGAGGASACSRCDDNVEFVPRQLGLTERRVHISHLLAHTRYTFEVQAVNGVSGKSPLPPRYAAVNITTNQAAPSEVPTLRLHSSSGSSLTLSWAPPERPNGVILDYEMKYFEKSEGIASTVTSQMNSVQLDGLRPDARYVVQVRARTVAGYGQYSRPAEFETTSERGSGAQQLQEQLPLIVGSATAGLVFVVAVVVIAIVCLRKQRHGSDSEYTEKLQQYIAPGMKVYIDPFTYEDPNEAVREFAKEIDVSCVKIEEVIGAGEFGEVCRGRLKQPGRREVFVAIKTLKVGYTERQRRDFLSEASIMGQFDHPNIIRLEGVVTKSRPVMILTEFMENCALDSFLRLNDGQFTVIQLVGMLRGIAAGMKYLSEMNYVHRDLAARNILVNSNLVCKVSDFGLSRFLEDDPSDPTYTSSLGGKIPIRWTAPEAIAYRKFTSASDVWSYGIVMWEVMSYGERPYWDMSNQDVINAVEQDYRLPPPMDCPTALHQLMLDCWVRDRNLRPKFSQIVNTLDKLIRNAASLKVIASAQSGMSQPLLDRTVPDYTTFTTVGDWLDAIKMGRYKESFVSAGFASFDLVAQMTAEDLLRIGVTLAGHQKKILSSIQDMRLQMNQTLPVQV

[8] = biological target: Cyclin-dependent kinase 15 (Homo sapiens) (UniProt Q96Q40); assay: Selectivity interaction (Ambit KINOMEscan and KiNATiv profiling in Jurkat cells) EUB0000090b CDK15; type: cell-based; conditions: at 1 µM
Cyclin-dependent kinase 15 (Homo sapiens), sequence (Q96Q40 whole entry): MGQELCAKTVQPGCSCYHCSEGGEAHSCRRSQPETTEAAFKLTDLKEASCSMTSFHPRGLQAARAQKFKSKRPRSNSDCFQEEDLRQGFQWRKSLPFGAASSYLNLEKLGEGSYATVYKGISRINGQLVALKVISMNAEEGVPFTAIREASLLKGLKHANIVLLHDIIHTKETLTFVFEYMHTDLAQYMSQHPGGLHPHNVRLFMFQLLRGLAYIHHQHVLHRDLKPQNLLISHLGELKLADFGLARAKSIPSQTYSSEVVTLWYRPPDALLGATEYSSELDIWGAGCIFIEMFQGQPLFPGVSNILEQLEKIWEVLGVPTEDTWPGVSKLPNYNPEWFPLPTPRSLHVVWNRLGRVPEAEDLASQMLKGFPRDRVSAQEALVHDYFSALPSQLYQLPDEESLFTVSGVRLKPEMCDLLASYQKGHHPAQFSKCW

[9] = biological target: Tyrosine-protein kinase JAK1 (Homo sapiens, UniProt P23458); assay: Selectivity interaction (KinomeScan (DiscoverX)) EUB0000655a JAK1; conditions: at 10 µM
Tyrosine-protein kinase JAK1, sequence (P23458 whole entry): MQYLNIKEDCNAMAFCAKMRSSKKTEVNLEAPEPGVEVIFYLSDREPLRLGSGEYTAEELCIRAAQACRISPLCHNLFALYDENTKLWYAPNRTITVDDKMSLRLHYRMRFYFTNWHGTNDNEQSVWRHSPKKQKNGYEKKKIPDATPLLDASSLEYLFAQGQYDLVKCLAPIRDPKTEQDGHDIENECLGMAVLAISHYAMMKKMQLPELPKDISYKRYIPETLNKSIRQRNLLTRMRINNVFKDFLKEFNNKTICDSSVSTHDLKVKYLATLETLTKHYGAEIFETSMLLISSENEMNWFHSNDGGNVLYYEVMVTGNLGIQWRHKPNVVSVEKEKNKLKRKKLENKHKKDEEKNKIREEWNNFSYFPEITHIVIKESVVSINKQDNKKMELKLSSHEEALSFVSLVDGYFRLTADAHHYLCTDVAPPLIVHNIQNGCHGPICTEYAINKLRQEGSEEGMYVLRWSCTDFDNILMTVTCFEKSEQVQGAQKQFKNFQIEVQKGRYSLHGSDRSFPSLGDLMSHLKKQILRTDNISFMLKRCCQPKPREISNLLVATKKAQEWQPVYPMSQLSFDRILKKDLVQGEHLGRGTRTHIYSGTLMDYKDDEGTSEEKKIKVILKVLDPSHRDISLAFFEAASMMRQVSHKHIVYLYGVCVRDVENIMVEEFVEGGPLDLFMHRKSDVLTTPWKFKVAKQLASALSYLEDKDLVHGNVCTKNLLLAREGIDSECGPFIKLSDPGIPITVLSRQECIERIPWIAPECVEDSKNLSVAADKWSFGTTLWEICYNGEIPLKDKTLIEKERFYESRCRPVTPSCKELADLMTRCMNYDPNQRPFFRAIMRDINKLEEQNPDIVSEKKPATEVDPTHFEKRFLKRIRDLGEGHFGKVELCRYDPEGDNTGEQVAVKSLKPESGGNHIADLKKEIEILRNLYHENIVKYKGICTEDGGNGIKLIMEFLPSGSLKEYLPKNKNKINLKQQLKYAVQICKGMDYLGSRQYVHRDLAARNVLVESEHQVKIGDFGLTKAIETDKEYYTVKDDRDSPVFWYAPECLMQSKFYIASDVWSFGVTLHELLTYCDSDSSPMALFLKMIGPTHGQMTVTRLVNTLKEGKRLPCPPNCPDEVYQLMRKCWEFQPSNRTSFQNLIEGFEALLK

[10] = biological target: TGF-beta receptor type-2 (Homo sapiens) (UniProt P37173); assay: Selectivity interaction (KinomeScan (DiscoverX)) EUB0000655a TGFBR2; conditions: at 10 µM
[11] = biological target: T3, Myosin light chain kinase family member 4 (Homo sapiens) (UniProt Q86YV6); assay: Selectivity interaction (KinomeScan (DiscoverX)) EUB0000607a MYLK4; conditions: at 10 µM
T3 sequence (whole entry): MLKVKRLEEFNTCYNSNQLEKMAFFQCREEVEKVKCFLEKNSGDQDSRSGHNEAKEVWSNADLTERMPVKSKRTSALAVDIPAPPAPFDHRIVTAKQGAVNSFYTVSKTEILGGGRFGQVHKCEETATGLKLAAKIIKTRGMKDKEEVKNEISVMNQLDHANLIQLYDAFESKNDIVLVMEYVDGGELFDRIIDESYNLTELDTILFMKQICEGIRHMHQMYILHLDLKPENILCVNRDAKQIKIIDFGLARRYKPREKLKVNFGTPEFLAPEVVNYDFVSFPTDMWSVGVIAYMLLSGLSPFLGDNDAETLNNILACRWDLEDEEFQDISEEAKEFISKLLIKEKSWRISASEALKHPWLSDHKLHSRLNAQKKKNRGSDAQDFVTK

Calcium/calmodulin-dependent protein kinase type II subunit delta (Homo sapiens), sequence (Q13557 whole entry): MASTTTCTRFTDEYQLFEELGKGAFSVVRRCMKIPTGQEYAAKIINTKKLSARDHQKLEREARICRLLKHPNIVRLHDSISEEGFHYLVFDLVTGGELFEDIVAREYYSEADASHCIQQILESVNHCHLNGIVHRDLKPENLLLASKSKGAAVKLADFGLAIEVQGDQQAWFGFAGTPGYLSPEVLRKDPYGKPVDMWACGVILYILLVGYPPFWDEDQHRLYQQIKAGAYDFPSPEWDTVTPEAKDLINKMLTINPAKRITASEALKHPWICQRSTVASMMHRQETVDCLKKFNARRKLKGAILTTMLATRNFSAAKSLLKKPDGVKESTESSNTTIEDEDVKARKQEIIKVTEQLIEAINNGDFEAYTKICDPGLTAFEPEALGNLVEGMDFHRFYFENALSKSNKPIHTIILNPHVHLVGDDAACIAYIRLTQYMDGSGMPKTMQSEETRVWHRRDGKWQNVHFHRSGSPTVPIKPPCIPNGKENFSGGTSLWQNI

## O=C(NOC[C@H](O)CO)c1ccc(F)c(F)c1Nc1ccc(I)cc1F
[1]
  % of control: 100%

## CN(C(=O)c1cnn2cccnc12)c1cc2c(cc1N1CCOCC1)C(=O)N(C[C@@H](F)C(C)(C)O)C2
[2]
  dTM: 0.2 K

## CC[C@@H]1[C@H](F)C(=O)N[C@@H]1COc1nccc2cc(C(N)=O)c(OC)cc12 [ZIMLOVISERTIB]
[3]
  % of inhibition: 6.1%
[4]
  % of inhibition: 75.5%
[5]
  % of inhibition: -5.8%
[6]
  % of inhibition: 6.64%

## CCC(=O)N1CCN(c2ccc(-n3c(=O)ccc4cnc5ccc(-c6cnc7ccccc7c6)cc5c43)cc2C(F)(F)F)CC1
[7]
  % of control: 85%

## CN(C)C/C=C/C(=O)Nc1ccc(C(=O)N2CCCC(Nc3ncc(Cl)c(-c4c[nH]c5ccccc45)n3)C2)cc1 (stereo unspecified)
[8]
  % of control: 73%

## CN(C)CCOc1ccc(-c2nc(-c3ccncc3)c(-c3ccc4c(c3)CC/C4=N\O)[nH]2)cc1
[9]
  % of control: 100%
[10]
  % of control: 44%

## CNC(=O)Nc1ccc(-c2nc(N3CC4CCC(C3)O4)c3cnn(C4CCC5(CC4)OCCO5)c3n2)cc1
[11]
  % of control: 100%
